Assay results reported in US20200085895A1, “PUNICALAGIN COMPOSITIONS AND METHODS FOR THE TREATMENT OF DISORDERS ARISING FROM METHYLGLYOXAL-INDUCED DNA DAMAGE” (Verdure Sciences, priority 2018, published 2020).
Entries after “also recorded” stand apart in the source; their conditions may differ.

Experiments:
[1] = system: HaCaT cells; assay: Cell viability of HaCaT cells exposed to test substances (CTG 2.0); format: cell-based, human; details: 0-200 μM, 24 hours, FIG. 3
Description: (§1) HaCaT cells which were derived from human adult keratinocytes were bought from American Type Culture Collection (Manassas, Va., USA). The cells were maintained in DMEM supplemented with 5% FBS at 37° C. under an atmosphere of 5% CO2 and 95% air. The culture medium was replaced every other day.
Cellular viability was assessed using the Cell Titer Glo2.0 (CTG 2.0) one-step assay. Briefly, HaCaT cells were seeded at about 50 000 cells/ml to yield 50-60% confluence in a standard white-walled clear bottom 96-well plate. HaCaT cells were exposed to different concentration of PE (0, 6.25, 12.5, 25, 50, 100, 200 μg/mL), PA (0, 3.13, 6.25, 12.5, 25, 50, 100, 200 μM), EA (0, 3.13, 6.25, 12.5, 25, 50, 100, 200 μM), and UA (0, 3.13, 6.25, 12.5, 25, 50, 100, 200 μM) for 24 hours. Following the pre-determined incubation period of 24 hours, CTG 2.0 was added in a 1:1 ratio with existing media and mixed for 5 minutes on an orbital shaker prior to luminescence measurement (Spectramax M2, Molecular Devices, Sunnyvale, Calif., USA).

[2] = system: HaCaT cells; assay: Reactive oxygen species (ROS) assay, DCFDA; format: cell-based, human; details: MGO 400 μM 24 h, FIG. 6
Description: HaCaT cells were seeded at about 50 000 cells/ml to yield 50-60% confluence in standard white-walled clear bottom 96-well plates and 6-well plates in DMEM. After 12 h incubation cells were pre-treated with concentrations of PE (0, 6.25, 12.5, 25, 50, 100, 200 μg/mL), PA (0, 3.13, 6.25, 12.5, 25, 50, 100, 200 μM), EA (0, 3.13, 6.25, 12.5, 25, 50, 100, 200 μM), and UA (0, 3.13, 6.25, 12.5, 25, 50, 100, 200 μM) for 2 hours. Then, the medium was replaced with DMEM containing 20 μM DCFDA and MGO (400 μM) for 24 h. After incubation, all the wells were washed with PBS twice. Subsequently, the fluorescence signals from 96-well plates were read at excitation and emission wavelengths of 485 and 525 nm, respectively, using a Spectra Max M2 spectrometer (Molecular Devices, Sunnyvale, Calif., USA). Cells images were taken with EVOS Cell Imaging System (Invitrogen, Waltham, Mass., USA) using 6-well plates cells.

[3] = system: HaCaT cells; assay: Hoechst 33342 staining, MGO-induced DNA damage; format: cell-based, human; details: 50 μM pre-treatment 2 hours, 400 μM MGO 24 hours; FIG. 7
Description: HaCaT cells were seeded at about 50,000 cells/ml to yield 50-60% confluency in a standard 6-well plate. Cells were pre-treated with PE 50 μg/mL, PA 50 μM, EA 50 μM, and UA 50 μM, respectively for 2 hours. Then cells were washed with PBS once and treated with 400 μM of MGO for 24 hours. After that cells were washed with PBS twice and then incubated with 250 μl Hoechst 33342 (1:300 dilute with PBS) at room temperature for 15 minutes. Then cells were fixed with 75% ethanol for 15 minutes, followed by imaging with EVOS Cell Imaging System (Invitrogen, Waltham, Mass., USA).

[4] = system: HaCaT cells; assay: Alkaline comet assay, MGO-induced DNA damage; format: cell-based, human; details: for protective effect on MGO induced DNA damage (comet assay, tail DNA): 50 μM pre-treatment 2 hours, MGO 400 μM 24 h, FIG. 8
Description: HaCaT cells were seeded at about 100 000 cells/ml to yield 80-90% confluence in standard 6-well plates. […] After incubation, the cells were washed with PBS twice and then treated with MGO (400 μM) for 24 h. After that, comet assay was performed as per the protocol provided by [sequence] (4250-050-K). Briefly, cells were collected and combined with molten LMAgarose at a ratio of 1:10, pipetted onto Comet slides, incubate in Lysis Solution at 4° C. overnight, immerse slides in Alkaline Unwinding Solution for 20 minutes, apply electrophoresis in Alkaline Electrophoresis Solution at 21 volts for 30 minutes, fixed in 75% ethanol for 15 minutes, dry in 37° C. for 15 minutes and then stain in diluted SYBR GOLD, images were taken with EVOS Cell Imaging System (Invitrogen, Waltham, Mass., USA) and analyzed via CASP.

[5] = system: HaCaT cells; assay: Transwell assay (cell migration ability); format: cell-based, human; details: 50 μM pre-treatment 2 hours, 400 μM MGO 24 h; FIG. 9B
Description: Cell migration ability was measured by transwell assay. HaCaT cells in 6-well plates were cultured up to about 80-90% confluence. Then cells were pretreated with PE 50 μg/mL, PA 50 μM, EA 50 μM, and UA 50 μM, respectively for 2 hours, then washed with PBS twice. After that, cells were exposed to 400 μM of MGO for 24 h. Then, cells were digested with trypsin and centrifuged at 300 g for 5 min. Then, 2.5×10^5 cell were suspended in 1 ml serum free DMED. 100 μl of serum free DMEM were added into the upper chamber and incubated for 5 minutes, then 600 μl DMEM containing 5% FBS were added to the 24 well plate (lower chamber). After that 300 μl of cell suspension were added into the upper chamber. After 12 h incubation, cells in upper chamber were washed with PBS and fixed with 75% ethanol for 15 minutes. Then cells in upper chamber were stained with Crystal violet for 10 minutes and washed for 5 times. Cells inside the upper chamber were removed by swab. Then, pictures were taken with EVOS Cell Imaging System (Invitrogen, Waltham, Mass., USA). After that stained cells were incubated in 75% ethanol for 15 minutes for decoloration. Then, optical density of the decoloration solution in 570 nm was calculated via Spectra Max M2 spectrometer (Molecular Devices, Sunnyvale, Calif., USA).

[6] = system: HaCaT cells; assay: MGO induced cell damage model (CTG 2.0, crystal violet staining); format: cell-based, human; details: 24 hours
Description: as §1
Briefly, HaCaT cells were seeded at about 50000 cells/ml to yield 50-60% confluence in standard white-walled clear bottom 96-well plates and 6-well plates. After 12 h incubation cells were treated with different concentrations of MGO ([…], 200 μM, 300 μM, 400 μM, 500 μM and 600 μM) for 24 hours respectively and use non-treated group as control. Cellular viability was detected using cells in 96-well plates via CTG 2.0. […] At higher concentrations than 400 μM the damaged caused by MGO to the cells was extreme. Morphological analysis was conducted to evaluate cell damage with crystal violet staining method in 6-well plates as per the below mentioned procedure.
Briefly crystal violet staining were carried with protocol provided by sigma. The staining solution was prepared by dissolve 5 g of crystal violet powder into 100 ml 20% ethanol to make. HaCaT cells in 6-well plates were fixed with 75% ethanol 15 minutes in room temperature. Then cells were incubated with staining solution for 10 minutes. After that cells were washed with PBS for 5 times. Subsequently, pictures were taken under EVOS Cell Imaging System (Invitrogen, Waltham, Mass., USA).
Excessive accumulation of MGO is harmful for skin cells, so the effects of MGO on cell viability at various concentrations on HaCaT cells were evaluated first.

[7] = system: 9mer ss-DNA; assay: Glycation assay and LC-MS analysis of MGO-induced DNA damage; format: biochemical; details: FIG. 1
Excerpt: DNA Oligonucleotide Synthesis. Nine-mer single stranded DNA oligonucleotide (9mer ss-DNA) with the sequence 5′-TTTTGTTTT-3′ containing a single guanine base was synthesized by using solid-phase phosphoramidite chemistry as previously described^2 on MerMade-4 DNA synthesizer. The oligonucleotide was purified by using Thermo Scientific DNAPac PA100 Oligonucleotide anion-exchange column (4×250 mm, 13 μm) with two mobile phases. Solvent A was water, and solvent B was 1.5M ammonium acetate in water. The oligonucleotide was characterized by HPLC electrospray ionization (ESI) triple quadrupole-TOF mass spectrometry (MS). The concentration of oligonucleotide was determined by measuring UV absorbance at 260 nm on a NanoDrop spectrophotometer.
Glycation Assay and LC-MS Analysis. […] LC-MS analysis was carried out on AB Sciex triple quadrupole-TOF 4600 mass spectrometer. […]
Statistical Analysis. […] The data between two groups was assessed under the two-tailed Student's t test. p-value<0.05 was considered as statistically significant. […]

[8] = system: HaCaT cells; assay: Protective effect on MGO induced cell damage model (CTG 2.0); format: cell-based, human; details: 12.5, 25, and 50 μM pre-treatment 2 hours, then 400 μM MGO 24 hours; FIG. 5
Description: as §1
Briefly, HaCaT cells were seeded at about 50000 cells/ml to yield 50-60% confluence in standard white-walled clear bottom 96-well plates and 6-well plates. After 12 h incubation cells were pre-treated with different concentrations of PE (0, 6.25, 12.5, 25, 50, 100, 200 μg/mL), PA (0, 3.13, 6.25, 12.5, 25, 50, 100, 200 μM), EA (0, 3.13, 6.25, 12.5, 25, 50, 100, 200 μM), and UA (0, 3.13, 6.25, 12.5, 25, 50, 100, 200 μM) for 2 hours. Then cells were washed with PBS twice and treated with 400 μM MGO for 24 hours. Cellular viability was detected using cells in 96-well plate via CTG 2.0, and cell images were taken with EVOS Cell Imaging System (Invitrogen, Waltham, Mass., USA) using cells in 6-well plates after crystal violet stain.

[9] = system: HaCaT cells; assay: Wound healing model (in vitro scratch healing assay); format: cell-based, human; details: 50 μM pre-treatment 2 hours, 400 μM MGO 48 h; FIG. 9D, 9E
Description: as §1
Wound healing model was constructed with an in vitro scratch healing assay performed as described previously with certain modifications.^4 HaCaT cells in 6-well plates were cultured up to about 80-90% confluence. Then cells were pretreated with PE 50 μg/mL, PA 50 μM, EA 50 μM, and UA 50 μM, respectively for 2 hours. After the treatments, a narrow wound-like gap in the cell monolayer was created with a […] pipette tip in each well. The shedding cells were washed off with PBS and then the images were captured with EVOS Cell Imaging System (Invitrogen, Waltham, Mass., USA). The cells were further exposed to 400 μM MGO for 48 h and the cell images were captured with EVOS Cell Imaging System (Invitrogen, Waltham, Mass., USA). Gap area was analyzed in image J, a software quantifying visualization image data, and the wound healing rate was calculated as follows=[…]/Gap Area(0 h)×100%.

| SMILES | cytotoxicity to HaCaT cells [1] | production of MGO induced ROS in HaCaT cells, compared to non-treated group ([2]; 50 μM pre-treatment 2 hours) | DNA damage level caused by MGO (Hoechst staining) [3] | protective effect on MGO induced DNA damage (comet assay, tail DNA) [4] | cell migration ability (transwell assay) [5] | effect of MGO on HaCaT cell viability ([6]; MGO 100-300 μM) | effect of MGO on HaCaT cell viability ([6]; MGO at 400 μM or higher) | effect of MGO on HaCaT cell viability ([6]; MGO higher than 400 μM) | percentage of fracture DNA compared to control group (comet assay) ([4]; MGO 400 μM alone, 24 h) | protective effect against methylglyoxal (MGO)-induced DNA damage ([7]; 200 μM 9mer ss-DNA, 200 μM MGO, pH 7.4, 37° C., 7 days) | activity in reducing DNA damage compared with aminoguanidine (AG) positive control ([7]; equivalent concentration (50 μM)) | cell viability of HaCaT cells exposed to MGO, compared to non-treated group [8] | production of MGO induced ROS in HaCaT cells, compared to non-treated group ([2]; 12.5, 25, and 50 μM pre-treatment 2 hours) | wound healing process in the presence of MGO [9] | production of MGO induced ROS in HaCaT cells, compared to non-treated group ([2]; 25 and 50 μM pre-treatment 2 hours) |
| --- | --- | --- | --- | --- | --- | --- | --- | --- | --- | --- | --- | --- | --- | --- | --- |
| O=c1oc2c(O)c(O)cc3c(=O)oc4c(O)c(O)cc1c4c23 [EA, ellagic acid] | not cytotoxic | significantly reduced the production of MGO induced ROS | can reduce the DNA damage level | no protective effects | promotive effects | – | – | – | – | – | – | – | – | – | – |
| CC(=O)C=O [MGO, methylglyoxal] | – | – | – | – | – | did not affect the cell viability; also recorded: non-toxic | significant cytotoxicity | extreme; also recorded: extremely cytotoxic | could increase the percentage of fracture DNA | – | – | – | – | – | – |
| O=C1O[C@H]2[C@@H]3OC(=O)c4cc(O)c(O)c(O)c4-c4c(O)c(O)c5oc(=O)c6c(c(O)c(O)c7oc(=O)c4c5c76)-c4c(cc(O)c(O)c4O)C(=O)OC[C@H]3OC(O)[C@@H]2OC(=O)c2cc(O)c(O)c(O)c2-c2c1cc(O)c(O)c2O (mixture of isomers) [PA, punicalagin] | – | – | can reduce the DNA damage level | protective effect | promotive effects | – | – | – | – | protective effect | considerably more active | significantly increased cell viability | significantly reduced the production of MGO induced ROS | can promote the wound healing process | – |
| O=c1oc2cc(O)ccc2c2ccc(O)cc12 [UA, urolithin A] | not cytotoxic | – | can reduce the DNA damage level | no protective effects | promotive effects | – | – | – | – | – | – | – | – | – | significantly reduced the production of MGO induced ROS |
